For series [1], the target named is T1, horse liver alcohol dehydrogenase (ADH) (Equus caballus, UniProt P00327).
T1 construct: horse liver alcohol dehydrogenase (ADH); from tissue; host or cells: horse liver
The series can be described thus: Inhibition of horse liver alcohol dehydrogenase (ADH), NADH absorbance at 340 nm. The settings on record: for Ki: pH 8.0. It counts as biochemical. Here is the method: 2. Inhibition of horse liver alcohol dehydrogenase (ADH) and bovine glutamate dehydrogenase (GDH) Rate measurements for each of the dehydrogenases used in this study are based on the spectral properties of NADH. […] Rates, using absorbance measurements, were calculated using a millimolar extinction coefficient of 6.22/cm for NADH. Alcohol dehydrogenase assays were run at pH 8.0, using 0.1M sodium phosphate buffer. […] All kinetic assays were run at least in duplicate. Initial values of inhibition constants were estimated from Lineweaver-Burk plots, using linear regression to obtain values for the slope and intercept of each line. Inhibition was judged to be competitive if the values obtained for the intercepts of the appropriate polots differed by less than three standard deviations as determined by linear regression. Values for the inhibition constant, Kis was obtained using the relationship: […] where S(+) and S(-) are the slopes of the plots in the presence and absence of inhibitor, respectively, and [I] is the concentration of total added inhibitor. Where a noncompetitive pattern of inhibition was observed, a similar analysis was used to obtain Kii. Km for conenzyme was obtained from the slope and intercept obtained in plots in the absence of inhibitor, using the relationship: Km =[…]. Values of effective inhibition constants and patterns of inhibition for CNAD binding to ADH were obtained by direct least-squares fits to the nonreciprocal forms of the Michaelis-Menten rate equations. Kinetic data were fit to the following relationships, assuming both competitive and noncompetitive inhibition respectively: vo =[…]]} vo =[…] vo is the initial reaction rate, Vm is the maximal rate, and Km and [A] the Michaelis constant and concentration of the variable substrate, respectively. The pattern of inhibition considered to best account for the observed data was that giving both the smallest residuals between observed and calculated values, and the smallest standard errors in the computed kinetics constants. […] Derivation of this rate equation assumes the presence of a tight binding inhibitor, i.e., that [I]~[E]. In this experiment both inhibitor and enzyme concentration were varied. Initial rates vo were measured at total concentrations of CNAD ([I]) of 0, 2.4, 9.6, and 19.2 nM over four concentrations of ADH ([E]). Concentrations of ethanol and NAD were fixed at 1.2 […] and 87 μM at pH 8.0. The apparent inhibition constant with respect to NAD, Ki', was then obtained by non-linear least-squares fit to the rate equation under the array of experimental conditions employed. The true rate constant Ki was obtained from the apparent rate constant Ki was obtained from the apparent rate constant Ki, via the relationship: […]

For series [2], the system named is murine leukemia L1210 cells. The series can be described thus: Cytotoxicity to murine leukemia L1210 cells. It counts as cell-based. Particulars: Mus musculus, incubated 24 and 48 hr, cells counted in a Coulter counter, read-out: inhibits the proliferation of L1210 cells by 50% (IC50). On the procedure:
1. Cytoxicity of 5-(β-D-ribofuranosyl)nicotinamide-(5'-5")-adenosine pyrophosphate (Compound 2, CNAD) to murine leukemia L1210 cells.
Murine leukemia L1210 cells were grown in RPMI 1640 medium. Logarithmically growing cells were incubated with various concentrations of CNAD for 24 and 48 hr periods and the cytoxicity determined by counting the cells in a Coulter counter.

The test system of series [3] is inosine monophosphate dehydrogenase (IMPDH). The series can be described thus: Inhibition of inosine monophosphate dehydrogenase by the NAD analog. It counts as biochemical.
The target of series [4] is bovine glutamate dehydrogenase (GDH) (Bos taurus, UniProt P00366). The series can be described thus: Inhibition of bovine glutamate dehydrogenase (GDH). The format is biochemical. On the procedure: 2. Inhibition of horse liver alcohol dehydrogenase (ADH) and bovine glutamate dehydrogenase (GDH)
bovine glutamate dehydrogenase (GDH), sequence (P00366 58-558): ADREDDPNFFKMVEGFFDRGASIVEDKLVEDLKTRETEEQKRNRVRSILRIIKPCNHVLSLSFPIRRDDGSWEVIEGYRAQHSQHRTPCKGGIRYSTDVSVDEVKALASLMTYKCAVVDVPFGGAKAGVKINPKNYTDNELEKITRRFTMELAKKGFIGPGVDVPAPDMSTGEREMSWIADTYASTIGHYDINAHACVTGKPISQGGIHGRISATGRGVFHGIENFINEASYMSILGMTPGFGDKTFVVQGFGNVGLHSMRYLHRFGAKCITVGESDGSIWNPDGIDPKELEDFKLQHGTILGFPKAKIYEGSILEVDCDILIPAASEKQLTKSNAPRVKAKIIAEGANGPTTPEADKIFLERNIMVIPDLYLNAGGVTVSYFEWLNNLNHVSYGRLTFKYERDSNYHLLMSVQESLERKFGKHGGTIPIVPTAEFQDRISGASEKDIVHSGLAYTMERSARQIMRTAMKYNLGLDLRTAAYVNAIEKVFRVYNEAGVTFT
Rate measurements for each of the dehydrogenases used in this study are based on the spectral properties of NADH. In assays with NAD as a substrate, rates were determined by measuring the increase in absorbance at 340 nm resulting from the conversion of NAD to NADH. Rates, using absorbance measurements, were calculated using a millimolar extinction coefficient of 6.22/cm for NADH.
Alcohol dehydrogenase assays were run at pH 8.0, using 0.1M sodium phosphate buffer. Glutamate dehydrogenase assays were at pH 7.0 in 0.1M sodium phosphate buffer, containing 10 μm EDTA. All kinetic assays were run at least in duplicate.
Initial values of inhibition constants were estimated from Lineweaver-Burk plots, using linear regression to obtain values for the slope and intercept of each line. Inhibition was judged to be competitive if the values obtained for the intercepts of the appropriate polots differed by less than three standard deviations as determined by linear regression. Values for the inhibition constant, Kis was obtained using the relationship:
where S(+) and S(-) are the slopes of the plots in the presence and absence of inhibitor, respectively, and [I] is the concentration of total added inhibitor. […]

Series [5] concerns lactate dehydrogenase (LDH). The series can be described thus: Inhibition of lactate dehydrogenase by the NAD analog. It counts as biochemical.
For series [6], the system named is malate dehydrogenase (MDH). The series can be described thus: Inhibition of malate dehydrogenase by the NAD analog. The format is biochemical.
For series [7], the target named is T2, horse liver alcohol dehydrogenase (LADH) (Equus caballus, UniProt P00327).
T2 construct: Horse liver ADH was obtained in crystalline form; purchased Boehringer Mannheim Biochemicals, Indianapolis; host or cells: horse liver
T2 sequence (P00327 whole entry): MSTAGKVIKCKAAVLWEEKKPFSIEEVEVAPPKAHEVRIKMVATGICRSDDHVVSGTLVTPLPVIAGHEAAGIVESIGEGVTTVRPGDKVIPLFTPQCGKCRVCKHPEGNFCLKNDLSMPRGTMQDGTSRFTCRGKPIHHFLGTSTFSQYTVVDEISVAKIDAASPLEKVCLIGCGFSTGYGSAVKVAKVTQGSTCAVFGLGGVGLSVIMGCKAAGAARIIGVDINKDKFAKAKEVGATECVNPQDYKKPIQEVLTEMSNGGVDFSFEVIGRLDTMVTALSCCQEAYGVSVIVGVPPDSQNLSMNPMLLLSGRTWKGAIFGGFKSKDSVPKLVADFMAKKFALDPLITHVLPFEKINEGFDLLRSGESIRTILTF
Briefly: Preliminary assays of horse liver alcohol dehydrogenase (LADH) inhibition. The format is biochemical. Particulars: ethanol 1.2 mM, pH 8, read-out: level of inhibition of horse liver alcohol dehydrogenase (LADH). On the procedure: Purified human recombinant IMPDH-II was obtained from Dr. George D. Markham of the Institute for Cancer Research, Fox Chase Cancer Center, Fox Chase, Pa. Horse liver ADH was obtained in crystalline form from Boehringer Mannheim Biochemicals, Indianapolis. β-Nicotinamide adenine dinucleotide (NAD) in crystalline free acid form was also obtained from Boehringer. Inosine 5'-monophosphate (IMP) was purchased from Sigma Chemical Co., St. Louis as the disodium salt. All solutions were prepared using nano-pure water. Kinetic constants of the inhibitors with respect to NAD were obtained by monitoring spectrophotometrically the rate of production of NADH during the reaction. The course of the reaction was followed by measuring the changing absorbance of the reaction mixture at 340 nm, the absorbance peak for NADH, using a Beckman DU-65 spectrophotometer, and an extinction of 6.22 A mM^-1 cm^-1 for the reduced cofactor.(51) Preliminary assays of alcohol dehydrogenase were performed in a similar manner to that described above. LADH in crystalline suspension was spun down to a pellet and dissolved in 100 mM Tris-HCl buffer containing 100 mM KCl adjusted to pH 8 at 23° C. Stock solutions of NAD and ethanol were prepared in buffer based on molecular weight and volume, respectively. Ethanol was introduced as an aliquot of stock solution and its concentration was kept constant at 1.2 mM while NAD concentration was varied by serial dilution of the stock solution.

Series [8] has as its target T3, Human IMPDH type II (Homo sapiens, UniProt P12268).
T3 construct: Dr. George D. Markham, Institute for Cancer Research, Fox Chase Cancer Center, Fox Chase, Pa
Briefly: Inhibition of human IMPDH type II by TAD analogues. The format is biochemical. On the procedure:
Purified human recombinant IMPDH-II was obtained from Dr. George D. Markham of the Institute for Cancer Research, Fox Chase Cancer Center, Fox Chase, Pa. Horse liver ADH was obtained in crystalline form from Boehringer Mannheim Biochemicals, Indianapolis. β-Nicotinamide adenine dinucleotide (NAD) in crystalline free acid form was also obtained from Boehringer. Inosine 5'-monophosphate (IMP) was purchased from Sigma Chemical Co., St. Louis as the disodium salt. All solutions were prepared using nano-pure water.
Kinetic constants of the inhibitors with respect to NAD were obtained by monitoring spectrophotometrically the rate of production of NADH during the reaction.
Human IMPDH type II was stored at -70° C. in buffer containing 20 mM KCl, 1 mM EDTA, 1 mM DTT and 20 mM Tris-HCl adjusted to pH 8 at 23° C. In preparation for the assays, a frozen aliquot was thawed rapidly and filtered through a 0.45 μm acetate filter. Protein concentration was determined from a Coomassie Assay. In some cases the enzyme was diluted 4:1 in similar 20 mM Tris buffer. NAD and IMP solutions were prepared based on molecular weight.
Combination of the reactants was performed as follows: An aliquot of substrate solution was pipetted down one side of a cuvet, one of co-factor down another side, and inhibitor down a third. The volume was brought to 990 μL with reaction buffer and the cuvet was agitated. This mixture was allowed to incubate in the spectrophotometer sample holder for five minutes before the reaction was started, the temperature held at 37° C. by a circulating water bath. The reaction was initiated by the introduction of 10 μL of enzyme solution on a mixing plunger, and NADH production was monitored for between two and 10 minutes, depending on the activity of the protein solution.
The uninhibited rate of reaction as a function of cofactor concentration was first established. Velocities at four NAD concentrations and saturating substrate concentrations were measured and Km for NAD obtained. Inhibitor was then introduced to the reaction mixture with an NAD concentration in the vicinity of Km.
Lineweaver-Burk plots were used to assess the quality of the data and to initially characterize the mode of inhibition with respect to NAD. […] Consequently, values of kii (intercept) and kis (slope) reported in Table I were obtained from direct least squares fits to the expression:
where vo is the measured initial rate, Vm is the maximum rate, Km is the Michaelis constant of NAD, and [A] is concentration of NAD.

In series [9] the test system is cell membranes. The settings on record: compared with tiazofurin; personal communication (ref. 35); cited from earlier work.
Setting [10] is: IMPDH type II, read-out: Kis (binding).
Setting [11] is: NAD variable substrate, IMP constant at 100 μM, non-competitive, 37° C., read-out: Kii.
[12] abbreviates: NAD variable substrate, IMP constant at 100 μM, non-competitive, 37° C., read-out: Kis.

Read-outs that look alike come from different tables or passages of the source.

T1 sequence (P00327 whole entry): as above

Regarding `NC(=O)c1cccc([C@@H]2O[C@H](COP(=O)(O)OP(=O)(O)OC[C@H]3O[C@@H](n4cnc5c(N)ncnc54)[C@H](O)[C@@H]3O)[C@@H](O)[C@H]2O)n1` [C-PAD, 6-(β-D-ribofuranosyl)picolinamide-(5'-5")adenosine pyrophosphate], the “pattern of inhibition of ADH with respect to NAD” value in [1] was “competitive”. For the same molecule, the Ki in [1] (competitive, read-out: Ki, inhibition of ADH with respect to NAD) turned out to be 20 µM.

Regarding `NC(=O)c1cncc([C@@H]2O[C@H](COP(=O)(O)OP(=O)(O)OC[C@H]3O[C@@H](n4cnc5c(N)ncnc54)[C@H](O)[C@@H]3O)[C@@H](O)[C@H]2O)c1` [CNAD, 5-(β-D-ribofuranosyl)nicotinamide-(5'-5")-adenosine pyrophosphate], the “inhibitory activity against alcohol dehydrogenase from horse liver (in words)” value in [1] is “highly potent and selective inhibitory activity”. Also, in [1], the “pattern of inhibition of ADH with respect to NAD” value was “non-competitive”. Further, the Ki in series [1] (direct least-squares fit to Michaelis-Menten rate equations, read-out: apparent Ki (Ki') with respect to NAD) was 0.006 µM; in series [1] (non-competitive, with respect to NAD, read-out: Ki, inhibition of ADH), 0.002 µM; in series [4] (competitive, pH 7.0), 15 µM. In addition, in [2], the IC50 is 7 µM. Further, the “pattern of inhibition of IMPDH with respect to NAD” value in series [3] is reported as “competitive”. Moreover, in series [4], the “pattern of inhibition of GDH with respect to NAD” value was “competitive”. The “pattern of inhibition of LDH with respect to NAD” value in series [5] is “competitive”. Besides, the “pattern of inhibition of MDH with respect to NAD” value in series [6] is listed as “competitive”.

For `NC(=O)c1csc([C@@H]2O[C@H](COP(=O)(O)OP(=O)(O)OC[C@H]3O[C@@H](n4cnc5c(N)ncnc54)[C@H](F)[C@@H]3O)[C@@H](O)[C@H]2O)n1` [Compound 3, P^1-(Tiazofurin-5'-yl)-P^2-(2'-deoxy-2'-fluoroadenosin 5'-yl)pyrophosphate], the Ki is 100 µM in series [7], 0.5 µM in series [8] (setting [10]), 0.5 ± 0.1 µM in series [8] (setting [11]) and 6 ± 12 µM in series [8] (setting [12]).

As to `NC(=O)c1csc([C@@H]2O[C@H](COP(=O)(O)OP(=O)(O)OC[C@H]3O[C@@H](n4cnc5c(N)ncnc54)[C@H](O)[C@@H]3F)[C@@H](O)[C@H]2O)n1` [Compound 4, P^1-(Tiazofurin-5'-yl)-P^2-(3'-deoxy-3'-fluoroadenosin-5'-yl)pyrophosphate], the Ki in series [7] was determined as 100 µM; in series [8] (setting [10]), 0.7 µM; in series [8] (setting [11]), 0.7 ± 0.1 µM; in series [8] (setting [12]), 1.5 ± 0.6 µM.

With `NC(=O)c1csc([C@@H]2O[C@H](COP(=O)(O)OP(=O)(O)OC[C@H]3O[C@@H](n4cnc5c(N)ncnc54)[C@@H](F)[C@@H]3O)[C@@H](O)[C@H]2O)n1` [Compound 5], the Ki in [7] was above 10000 µM; in series [8] (setting [10]) it was 2.9 µM; in [8] (setting [11]), 2.9 ± 0.5 µM; in series [8] (setting [12]), 13 µM.

Turning to `NC(=O)c1csc([C@@H]2O[C@H](COP(=O)(O)C(F)(F)P(=O)(O)OC[C@H]3O[C@@H](n4cnc5c(N)ncnc54)[C@H](O)[C@@H]3O)[C@@H](O)[C@H]2O)n1` [β-CF2 -TAD, β-difluoromethylene TAD], in [9], the “penetration of cell membranes” value is recorded as “can penetrate cell membranes although not as efficiently as tiazofurin”. In addition, the Ki is 0.17 µM in series [8] (IMPDH type II, read-out: Ki); 0.17 ± 0.03 µM in series [8] (setting [11]); 0.3 ± 0.2 µM in series [8] (setting [12]).

Source of the values: US5658890A, “C-nucleoside isostere of nicotinamide adenine dinucleotide, analogs thereof and use as anti-cancer agent” (Sloan-Kettering Institute for Cancer Research, priority 1995, dated 1997).
